Assay results published in PubChem BioAssay AID743309 (Sanford-Burnham Center for Chemical Genomics, 2014).
Calls of active or inactive are those of the source.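 Rule for the calls: active = IC50 at or below 20 µM; inactive = the rest.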

These molecules were tested against Tyrosine-protein phosphatase non-receptor type 22 (Homo sapiens) (UniProt Q9Y2R2) (assay: PTPN22 enzyme inhibitor analogs – biochemical, fluorescence, LYP catalytic domain, selectivity assay for LMPTP inhibitor project, SAR follow-up (AID 743309)). Details: recombinant LYP catalytic domain, OMFP fluorescence.
Sequence of Tyrosine-protein phosphatase non-receptor type 22 (Homo sapiens) (Q9Y2R2 whole entry, looked up, the tested form may be a part): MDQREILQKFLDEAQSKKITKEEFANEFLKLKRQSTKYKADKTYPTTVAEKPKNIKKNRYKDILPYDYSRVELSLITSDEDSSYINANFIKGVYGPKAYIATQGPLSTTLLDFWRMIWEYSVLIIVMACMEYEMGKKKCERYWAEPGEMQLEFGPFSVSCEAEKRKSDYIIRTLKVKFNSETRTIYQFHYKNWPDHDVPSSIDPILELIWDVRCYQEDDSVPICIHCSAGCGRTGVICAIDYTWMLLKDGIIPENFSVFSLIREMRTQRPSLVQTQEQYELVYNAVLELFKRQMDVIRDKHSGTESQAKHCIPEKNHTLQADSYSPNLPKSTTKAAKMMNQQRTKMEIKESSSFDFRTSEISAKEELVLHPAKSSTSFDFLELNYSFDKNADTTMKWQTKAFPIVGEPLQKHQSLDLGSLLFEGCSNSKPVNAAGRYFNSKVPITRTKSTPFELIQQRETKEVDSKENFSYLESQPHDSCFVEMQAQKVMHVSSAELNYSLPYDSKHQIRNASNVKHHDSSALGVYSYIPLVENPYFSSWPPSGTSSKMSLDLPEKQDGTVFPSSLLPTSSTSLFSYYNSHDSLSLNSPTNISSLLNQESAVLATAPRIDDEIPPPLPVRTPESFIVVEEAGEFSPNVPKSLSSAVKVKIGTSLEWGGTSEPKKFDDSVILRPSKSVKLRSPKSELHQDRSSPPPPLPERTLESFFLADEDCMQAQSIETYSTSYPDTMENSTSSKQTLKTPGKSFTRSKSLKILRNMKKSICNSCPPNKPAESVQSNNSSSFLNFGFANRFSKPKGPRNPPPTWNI

Row | SMILES | IC50
1 | c1ccc(-c2cc(OCCCN3CCCCC3)c3ccccc3n2)cc1 | > 80 µM (inactive)
2 | c1ccc(-c2cc(NCCCN3CCOCC3)c3ccccc3n2)cc1 | > 80 µM (inactive)
3 | c1ccc(-c2cc(SCCCN3CCCCC3)c3ccccc3n2)cc1 | > 80 µM (inactive)
4 | COc1ccccc1-c1cc(NCCCN2CCCCC2)c2ccccc2n1 | > 80 µM (inactive)
5 | c1ccc(-c2nc(NC3CCCCC3)c3ccccc3n2)cc1 | > 80 µM (inactive)
6 | c1ccc(-c2nc(NCCCn3ccnc3)c3ccccc3n2)cc1 | > 80 µM (inactive)
7 | Fc1ccccc1-c1nc(NCCCN2CCOCC2)c2ccccc2n1 | > 80 µM (inactive)
8 | c1ccc(-c2nc(NCCCN3CCOCC3)c3ccccc3n2)cc1 | > 80 µM (inactive)
9 | c1ccc(-c2nc(N3CCOCC3)c3ccccc3n2)cc1 | > 80 µM (inactive)
10 | c1ccc(-c2cc(N3CCCCC3)c3ccccc3n2)cc1 | > 80 µM (inactive)
11 | c1ccc(-c2nc(N3CCCCC3)c3ccccc3n2)cc1 | > 80 µM (inactive)
12 | Clc1cccc(Cl)c1Cn1cnc(=NCc2ccco2)c2[nH]cnc21 | > 80 µM (inactive)
13 | Fc1ccc(-c2cc(NCCCN3CCCCC3)c3ccccc3n2)cc1 | > 80 µM (inactive)
14 | c1ccc(-c2cc(NCCN3CCCC3)c3ccccc3n2)cc1 | > 80 µM (inactive)
15 | c1ccc(-c2nc(NCCCN3CCCCC3)c3ccccc3n2)cc1 | > 80 µM (inactive)
16 | FC(F)(F)c1cccc(-c2cc(NCCCN3CCCCC3)c3ccccc3n2)c1 | > 80 µM (inactive)
17 | c1ccc(-c2nc(NCCN3CCOCC3)c3ccccc3n2)cc1 | > 80 µM (inactive)
18 | COc1cccc(-c2cc(NCCCN3CCCCC3)c3ccccc3n2)c1 | > 80 µM (inactive)
19 | c1ccc2c(NCCCN3CCCCC3)cc(-c3ccncc3)nc2c1 | > 80 µM (inactive)
20 | O=C(OCCNc1nc(-c2ccccc2)nc2ccccc12)c1ccncc1 | > 80 µM (inactive)

Row | SMILES | IC50
21 | c1ccc(-c2nc(NCCN3CCCCC3)c3ccccc3n2)cc1 | > 80 µM (inactive)
22 | c1ccc(-c2nc(N3CCCC3)c3ccccc3n2)cc1 | > 80 µM (inactive)
23 | c1ccc(-c2nc(NC3CCCC3)c3ccccc3n2)cc1 | > 80 µM (inactive)
24 | COc1cc2nc(-c3ccccc3)cc(NCCCN3CCCCC3)c2cc1OC | > 80 µM (inactive)
25 | Fc1cccc(-c2cc(NCCCN3CCCCC3)c3ccccc3n2)c1 | > 80 µM (inactive)
26 | c1ccc(-c2cc(NCCN3CCOCC3)c3ccccc3n2)cc1 | > 80 µM (inactive)
27 | Cc1c(CCC(=O)O)c(=O)oc2c(C)c(OCc3ccccc3Cl)ccc12 | 15.7 µM
28 | Fc1ccccc1-c1nc(NC2CCCC2)c2ccccc2n1 | > 80 µM (inactive)
29 | c1ccc(-c2cc(NCCCN3CCCCC3)c3ccccc3n2)cc1 | > 80 µM (inactive)
30 | c1ccc(-c2nc(NCCN3CCCC3)c3ccccc3n2)cc1 | > 80 µM (inactive)
31 | Clc1ccccc1-c1cc(NCCCN2CCCCC2)c2ccccc2n1 | > 80 µM (inactive)
32 | COc1ccccc1CNc1ncnc2ccsc12 | > 80 µM (inactive)
33 | O=C(OCCNc1nc(-c2ccccc2)nc2ccccc12)c1cccnc1 | > 80 µM (inactive)
34 | c1ccc(-c2cc(NCCN3CCCCC3)c3ccccc3n2)cc1 | > 80 µM (inactive)
35 | CN(C)CCNc1cc(-c2ccccc2)nc2ccccc12 | > 80 µM (inactive)
36 | c1ccc(-c2nc(N3CCSCC3)c3ccccc3n2)cc1 | > 80 µM (inactive)
37 | Fc1ccc2nc(-c3ccccc3)cc(NCCCN3CCCCC3)c2c1 | > 80 µM (inactive)
38 | Brc1ccc2nc(-c3ccccc3)cc(NCCCN3CCCCC3)c2c1 | > 80 µM (inactive)
39 | c1ccc(-c2nc(N3CCCCCC3)c3ccccc3n2)cc1 | > 80 µM (inactive)

The remaining lines, values ahead:

Row | IC50 | SMILES
40 | > 80 µM (inactive) | Clc1cccc(-c2cc(NCCCN3CCCCC3)c3ccccc3n2)c1
41 | > 80 µM (inactive) | CCCCNc1nc(-c2ccccc2)nc2ccccc12
42 | > 80 µM (inactive) | c1ccc(-c2nc(NCc3cccnc3)c3ccccc3n2)cc1
43 | > 80 µM (inactive) | Nc1nc(N)c(Cc2ccc(Cl)cc2Cl)c(N)n1
44 | > 80 µM (inactive) | Clc1ccc(-c2cc(NCCCN3CCCCC3)c3ccccc3n2)cc1
45 | > 80 µM (inactive) | Cc1ccc(-c2nc(NCCN3CCOCC3)c3ccccc3n2)cc1
46 | > 80 µM (inactive) | CC(C)CNc1nc(-c2ccccc2)nc2ccccc12
47 | > 80 µM (inactive) | CC(C)OCCCNc1nc(-c2ccccc2)nc2ccccc12
48 | > 80 µM (inactive) | CCN(CC)c1nc(-c2ccccc2)nc2ccccc12
49 | > 80 µM (inactive) | CC(C)Nc1nc(-c2ccccc2)nc2ccccc12
50 | > 80 µM (inactive) | CCc1nc(N)nc(N)c1-c1ccc(Cl)cc1
51 | > 80 µM (inactive) | COc1ccc(-c2cc(NCCCN3CCCCC3)c3ccccc3n2)cc1
52 | > 80 µM (inactive) | Cc1ccc(-c2nc(NCc3cccnc3)c3ccccc3n2)cc1
53 | > 80 µM (inactive) | c1ccc(-c2nc(NC3CC3)c3ccccc3n2)cc1
54 | > 80 µM (inactive) | CN(C)CCNc1nc(-c2ccccc2)nc2ccccc12
55 | > 80 µM (inactive) | Cc1cccc(-c2nc(NCCCN3CCOCC3)c3ccccc3n2)c1
56 | > 80 µM (inactive) | Cc1ccc(-c2cc(NCCCN3CCCCC3)c3ccccc3n2)cc1
57 | > 80 µM (inactive) | Cc1ccc2nc(-c3ccccc3)cc(NCCCN3CCCCC3)c2c1
58 | > 80 µM (inactive) | CC1CCN(c2nc(-c3ccccc3)nc3ccccc23)CC1
59 | > 80 µM (inactive) | CN1CCN(c2nc(-c3ccccc3)nc3ccccc23)CC1
